Square brackets hold non-standard residues; d marks the D form. Peptide text beside a SMILES is read from it. Orn = NCCC[C@H](N)C(=O)O
Columns and labels:
Experiment in all cases: Mean activity
Assay type in all cases: cell-based
Gram-negative bacteria = details: geometric mean of MIC values (after 24 h) against 7 Gram-negative strains
Gram-positive bacteria = details: geometric mean of MIC values (after 24 h) against 7 Gram-positive strains
fungi = details: geometric mean of MIC values (after 24 h) against 2 fungal strains

**Q.** Which “Mean Activity, Gram-negative bacteria” value (Gram-negative bacteria) does the source give for `CC(C)C[C@@H]1NC(=O)[C@H](CCCN)NC(=O)[C@H](C(C)C)NC(=O)[C@@H]2CCCN2C(=O)[C@@H](Cc2ccccc2)NC(=O)[C@H](CC(C)C)NC(=O)[C@H](CCCN)NC(=O)[C@H](C(C)C)NC(=O)[C@@H]2CCCN2C(=O)[C@@H](Cc2ccccc2)NC1=O` [GS, gramicidin S] (cyclo(V[Orn]L[dF]PV[Orn]L[dF]P)) here?
**A.** 23.8 µg/mL

**Q.** And the “Mean activity, Gram-positive bacteria” value (Gram-positive bacteria)?
**A.** 1.4 µg/mL

**Q.** And the “Mean activity, fungi” value (fungi)?
**A.** 2.8 µg/mL

From publication PMC2759687 (Journal of medicinal chemistry, 2009)
